What all share (assay type): in vivo
Assay [1] deals with α-SMA-positive CAFs in the FaDu subcutaneous model. Put plainly: Effect on α-SMA-positive CAFs in the FaDu subcutaneous model in mice (Test Example 19). The method, then: A human squamous cell carcinoma of the head and neck (SCCHN) cell line FaDu, which had been cultured in an RPMI-1640 medium containing 10% FBS, and penicillin-streptomycin (culture medium), was adjusted to a concentration of 5×10^7 cells/mL with culture medium to prepare a cell suspension. The cell suspension was inoculated in a volume of 100 μL into a subcutaneous part of a right flank of nude mice, 6 weeks of ages (CAnN.Cg-Foxnlnu/CrlCrlj, female, Charles River Laboratories Japan, Inc.). Ten days after cell inoculation, the mice were grouped such that averages of the tumor volumes were substantially equal among the groups. The experiment was conducted on groups each consisting of 5 mice. Each test compound was dissolved in DMSO and a solution was stored in the freezer before use. Immediately before the administration, the stock solution was diluted with saline. The test compound in saline was intravenously administered at 20 μg/kg, […]. Two days or 5 days after the single administration, tumor samples were collected and fixed with IHC Zinc Fixative (BD Pharmingen) at 4° C. for 24 hours. Paraffin-embedded tissues were sectioned (3 μm), mounted on positively charged slides, and air-dried. Sections were deparaffinized, conditioned and the antigens were retrieved using microwave with 1 mM EDTA at pH 6.0. Sections were blocked with 1% of BSA in TBS. Mouse anti-α-SMA monoclonal antibody conjugated with alkaline phosphatase (clone 1A4, Sigma) was applied at 5 μg/mL. Sections were incubated with the antibody for 2.5 hr. […] The area of α-SMA-positive region in the whole tumor was quantified by counting the α-SMA-positive objects using inform 2 software (PerkinElmer Inc.) Area of the tumor region was measured by assessing the hematoxylin-staining area using inform 2 software (PerkinElmer Inc.). […] A suppression rate of the α-SMA-positive area of the test compound-dosing group was calculated with the below formula: α-SMA ratio=α-SMA area of the test compound-dosing group/α-SMA area of the non-treat group

The next assay concerns Tenascin-C. Put plainly: Effect on Tenascin-C in the FaDu subcutaneous model in mice. The settings on record: Compound (1) 180 μg/kg + CTX 10 mg/kg on Day 1, five days after, compared with control tumors. As to the method: A human squamous cell carcinoma of the head and neck (SCCHN) cell line FaDu, which had been cultured in an RPMI-1640 medium containing 10% FBS, and penicillin-streptomycin (culture medium), was adjusted to a concentration of 5×10^7 cells/mL with culture medium to prepare a cell suspension. The cell suspension was inoculated in a volume of 100 μL into a subcutaneous part of a right flank of nude mice, 6 weeks of ages (CAnN.Cg-Foxnlnu/CrlCrlj, female, Charles River Laboratories Japan, Inc.). Ten days after cell inoculation, the mice were grouped such that averages of the tumor volumes were substantially equal among the groups. The experiment was conducted on groups each consisting of 5 mice. Compound (1) was dissolved in DMSO and a solution was stored in the freezer before use. […] Five days after the single administration, tumor samples were collected and fixed with IHC Zinc Fixative (BD Pharmingen) at 4° C. for 24 hr. Paraffin-embedded tissues were sectioned (3 μm), mounted on positively charged slides, and air-dried. Sections were deparaffinized, conditioned and the antigens were retrieved using microwave with 1 mM EDTA at pH 6.0 for Tenascin-C. For EDA-fibronectin, the antigens retrieval procedure was not necessary. […]

Assay [2] concerns AN3CA (human endometrial cancer) xenograft. In words: Antitumor effects in AN3CA endometrial cancer xenograft model in mice as monotherapy. The settings on record: 180 μg/kg intravenously on Day 1 and Day 8. As to the method:
A human endometrial cancer cell line AN3CA, which had been cultured in an E-MEM containing 10% FBS, and penicillin-streptomycin, was adjusted to a concentration of 1.4×10^8 cells/mL with Hanks' Balanced Salt Solution to prepare a cell suspension, and the suspension was mixed with Geltrex® (Thermo Fisher Scientific Inc., #A1413202) in a ratio of 1:1 to prepare a cell suspension in a concentration of 7×10^7 cells/mL. The cell suspension was inoculated in a volume of 100 μL into a subcutaneous part of a right flank of nude mice, 6 weeks of ages (CAnN.Cg-Foxnlnu/CrlCrlj, female, Charles River Laboratories Japan Inc.). Twelve days after cell inoculation (Day 1), the shortest diameter and the longest diameter of a tumor in each mouse were measured by using an electronic digital caliper (Digimatic™ caliper, Mitutoyo Corporation), so as to calculate the volume of the tumor in accordance with the following calculation formulae: Tumor volume (mm^3)=Longest diameter (mm)×Shortest diameter (mm)×Shortest diameter (mm)/2 Relative tumor volume (RTV)=Tumor volume (day X)/Tumor volume (the first day)
On the basis of the volumes of tumors obtained on Day 1, the mice were grouped such that averages of the tumor volumes were substantially equal among the groups. The experiment was conducted on groups each consisting of five mice. […]

Molecules are shown by their SMILES.

Take `C=C1C[C@@H]2CC[C@@]34C[C@H]5O[C@H]6[C@@H](O3)[C@H]3O[C@H](CC[C@@H]3O[C@H]6C5O4)CC(=O)O[C@@H]3[C@@H](C)[C@@H]4O[C@@H]5C[C@]6(C[C@@H]7O[C@]8(C[C@H](C)[C@@H]9O[C@H](CN)[C@H](O)C[C@@H]9O8)C[C@H](C)[C@@H]7O6)O[C@@H]5C[C@@H]4O[C@H]3C[C@H]3O[C@@H](CC[C@@H]1O2)C[C@@H](C)C3=C` [Compound (1)]: the α-SMA positive area result in assay [1] (single administration 180 μg/kg, Day 3) was “significantly reduced the α-SMA positive area”; in assay [1] (single administration 180 μg/kg, Day 6) it was “significantly reduced the α-SMA positive area”; in assay [1] (single administration 60 m/kg, Day 3), “significantly reduced the α-SMA positive area”. Besides, the “expression level of Tenascin-C” value in the assay on Tenascin-C is recorded as “reduced”. For the same molecule, the antitumor activity entry in assay [2] was “tumor regression”.

The record behind these values is patent US11725015B2, “Macrocyclic compound and uses thereof” (President and Fellows of Harvard College, priority 2017, dated 2023).
